Test results reported in US20110178094A1, “Oral Formulation” (H. LUNDBECK A/S, priority 2008, published 2011).

Legend:
[1] = tested on: condition avoidance response (CAR) model; assay: Condition avoidance response (CAR) model; format: in vivo; details: rats; at very low levels of D2 receptor occupancy
Excerpt: The compound of formula I is a putative antipsychotic compound with affinity for both dopamine D1 and D2 receptors.

dopamine D1 receptors = dopamine D1 receptors (Homo sapiens, UniProt P21728); details: reported in WO 2005/016900; cited from earlier work
Sequence of dopamine D1 receptors (P21728 whole entry): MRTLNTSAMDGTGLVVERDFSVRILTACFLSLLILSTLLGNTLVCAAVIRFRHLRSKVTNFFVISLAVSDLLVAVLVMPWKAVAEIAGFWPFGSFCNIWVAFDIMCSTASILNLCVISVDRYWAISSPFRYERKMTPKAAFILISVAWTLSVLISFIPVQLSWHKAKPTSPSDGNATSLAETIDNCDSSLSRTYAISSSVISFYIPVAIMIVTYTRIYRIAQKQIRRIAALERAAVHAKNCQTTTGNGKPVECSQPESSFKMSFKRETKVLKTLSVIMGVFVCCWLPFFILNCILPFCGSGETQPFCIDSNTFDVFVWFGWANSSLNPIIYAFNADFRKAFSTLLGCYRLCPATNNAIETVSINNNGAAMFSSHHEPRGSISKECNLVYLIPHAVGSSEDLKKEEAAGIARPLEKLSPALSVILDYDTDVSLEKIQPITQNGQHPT

[2] = tested on: preclinical models of cognitive dysfunctions; assay: Preclinical models of cognitive dysfunctions; format: in vivo
Excerpt: It is believed that the 5-HT6 receptor affinity of the compound of formula I is involved in the precognitive effects of the compound. Furthermore, it is believed that such pro-cognitive effect of the compound of formula I will be evident at a low level of D2 receptor occupancy, which is beneficial in terms of the side-effect profile.

α1 adrenoceptors = details: reported in WO 2005/016900; cited from earlier work
[3] = Study of the compatibility of the excipients and the compound; format: physicochemical; details: components used in the tablet formulation
Excerpt: Based on this, a traditional wet granulation, tabletting and film-coating process was developed using standard methods and excipients.

dopamine D2 receptors = dopamine D2 receptors (Homo sapiens, UniProt P14416); details: reported in WO 2005/016900; cited from earlier work
Sequence of dopamine D2 receptors (P14416 whole entry): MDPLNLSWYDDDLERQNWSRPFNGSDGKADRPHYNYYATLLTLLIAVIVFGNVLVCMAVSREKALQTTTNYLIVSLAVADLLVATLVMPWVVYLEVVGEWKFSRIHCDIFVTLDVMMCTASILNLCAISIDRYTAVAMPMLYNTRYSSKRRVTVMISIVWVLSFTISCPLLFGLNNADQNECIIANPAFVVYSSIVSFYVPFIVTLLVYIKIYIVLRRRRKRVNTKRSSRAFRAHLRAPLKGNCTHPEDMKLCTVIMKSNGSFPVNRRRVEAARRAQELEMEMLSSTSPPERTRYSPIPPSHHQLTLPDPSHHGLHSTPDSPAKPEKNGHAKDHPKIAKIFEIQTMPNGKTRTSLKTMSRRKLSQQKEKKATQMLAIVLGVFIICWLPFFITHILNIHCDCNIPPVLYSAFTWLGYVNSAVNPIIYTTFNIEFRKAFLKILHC

5-HT2 receptor = details: reported in WO 2005/016900; cited from earlier work

compatibility of the tablet excipients with the compound [3]: compatible
SMILES: CN1CCN([C@@H]2C[C@@H](c3ccccc3)c3ccc(Cl)cc32)CC1(C)C [compound of formula I, 4-((1R,3S)-6-chloro-3-phenylindan-1-yl)-1,2,2-trimethylpiperazine]
antipsychotic activity in CAR model [1]: possesses antipsychotic activity | affinity for dopamine D1 receptors (antagonist) (dopamine D1 receptors): high affinity | cognition enhancing properties [2]: cognition enhancing properties | affinity for α1 adrenoceptors (α1 adrenoceptors): high affinity | affinity for dopamine D2 receptors (antagonist) (dopamine D2 receptors): high affinity | affinity for the 5-HT2 receptor (antagonist) (5-HT2 receptor): high affinity
